The results in this text go back to patent US20100010057A1, “THIAZOLE DERIVATIVES AS INHIBITORS OF P13 KINASE” (CHROMA THERAPEUTICS LTD., priority 2006, published 2010).

Molecules are shown by their SMILES. A value given as a limit tells only on which side of the number the result lay.

The target of one test is PI3Kγ (human) (Homo sapiens, UniProt P48736). Put plainly: Inhibition of PI3 kinase γ activity (HTRF). The class given is biochemical. The note with it: ATP at or close to Km, IC50 range, read-out: Inhibitor activity versus PI3 Kinase γ. The method, then:
(B) Inhibition of PI3 Kinase V Activity
In a final reaction volume of 20 μl, PI3Kγ (human) is incubated in assay buffer containing 10 μM phosphatidylinositol-4,5-bisphosphate and MgATP (concentration as required). The reaction is initiated by the addition of the MgATP mix. After incubation for 30 minutes at room temperature, the reaction is stopped by the addition of 5 μl of stop solution containing EDTA and biotinylated phosphatidylinositol-3,4,5-trisphosphate. Finally, 5 μl of detection buffer is added, which contains europium-labelled anti-GST monoclonal antibody, GST-tagged GRP1 PH domain and streptavidin-allophycocyanin. The plate is then read in time-resolved fluorescence mode and the homogenous time-resolved fluorescence (HTRF) signal is determined according to the formula HTRF=10000×(Em665 nm/Em620 nm).
Duplicate data points are generated from a ⅓ log dilution series of a stock solution of compound in DMSO. Nine dilutions steps are made from a top concentration of 10 μM, and a ‘no compound’ blank is included. The HTRF PI 3-Kinase assay is performed at an ATP concentration at, or close to, the Km. HTRF ratio data is transformed into % activity of controls and analysed with a four parameter sigmoidal dose-response (variable slope) application. QC criteria is based on Top, Bottom, Hill slope, r^2 and IC50, the concentration giving 50% inhibition, which is reported.
(§1) For each of the assays (B), (C) and (D) above, IC50 values are allocated to one of three ranges as follows: […]

For a further test, the system named is THP-1 cells. Nature of the test: LPS-stimulation of THP-1 cells, TNF-α release. The note with it: Homo sapiens, LPS 1 μg/ml, 6 h, TNF-α by ELISA, IC50 range, read-out: Inhibitor activity versus THP-1 TNFα release. The class given is cell-based. The procedure: (C) LPS-Stimulation of THP-1 Cells
THP-1 cells are plated in 100 μl at a density of 4×10^4 cells/well in V-bottomed 96 well tissue culture treated plates and incubated at 37° C. in 5% CO2 for 16 h. 2 h after the addition of the inhibitor in 100 μl of tissue culture media, the cells are stimulated with LPS (E. coli strain 005:B5, Sigma) at a final concentration of 1 μg/ml and incubated at 37° C. in 5% CO2 for 6 h. TNF-α levels are measured from cell-free supernatants by sandwich ELISA (R&D Systems #QTA00B)
as §1
Background: An ELISA detects its analyte on a solid surface through an enzyme-linked reagent.

A further test deals with human whole blood. Nature of the test: LPS-stimulation of human whole blood, TNF-α release. The class given is cell-based. The note with it: LPS 100 ng/ml, 6 h, TNF-α by ELISA, IC50 range, read-out: Inhibitor activity versus human whole blood TNFα release. The method, then:
(D) LPS-Stimulation of Human Whole Blood
Whole blood is taken by venous puncture using heparinised vacutainers (Becton Dickinson) and diluted in an equal volume of RPMI1640 tissue culture media (Sigma). 100 μl is plated in V-bottomed 96 well tissue culture treated plates. 2 h after the addition of the inhibitor in 100 μl of RPMI1640 media, the blood is stimulated with LPS (E. coli strain 005:B5, Sigma) at a final concentration of 100 ng/ml and incubated at 37° C. in 5% CO2 for 6 h. TNF-α levels are measured from cell-free supernatants by sandwich ELISA (R&D Systems #QTA00B)
as §1

Sequence of PI3Kγ (human) (P48736 whole entry): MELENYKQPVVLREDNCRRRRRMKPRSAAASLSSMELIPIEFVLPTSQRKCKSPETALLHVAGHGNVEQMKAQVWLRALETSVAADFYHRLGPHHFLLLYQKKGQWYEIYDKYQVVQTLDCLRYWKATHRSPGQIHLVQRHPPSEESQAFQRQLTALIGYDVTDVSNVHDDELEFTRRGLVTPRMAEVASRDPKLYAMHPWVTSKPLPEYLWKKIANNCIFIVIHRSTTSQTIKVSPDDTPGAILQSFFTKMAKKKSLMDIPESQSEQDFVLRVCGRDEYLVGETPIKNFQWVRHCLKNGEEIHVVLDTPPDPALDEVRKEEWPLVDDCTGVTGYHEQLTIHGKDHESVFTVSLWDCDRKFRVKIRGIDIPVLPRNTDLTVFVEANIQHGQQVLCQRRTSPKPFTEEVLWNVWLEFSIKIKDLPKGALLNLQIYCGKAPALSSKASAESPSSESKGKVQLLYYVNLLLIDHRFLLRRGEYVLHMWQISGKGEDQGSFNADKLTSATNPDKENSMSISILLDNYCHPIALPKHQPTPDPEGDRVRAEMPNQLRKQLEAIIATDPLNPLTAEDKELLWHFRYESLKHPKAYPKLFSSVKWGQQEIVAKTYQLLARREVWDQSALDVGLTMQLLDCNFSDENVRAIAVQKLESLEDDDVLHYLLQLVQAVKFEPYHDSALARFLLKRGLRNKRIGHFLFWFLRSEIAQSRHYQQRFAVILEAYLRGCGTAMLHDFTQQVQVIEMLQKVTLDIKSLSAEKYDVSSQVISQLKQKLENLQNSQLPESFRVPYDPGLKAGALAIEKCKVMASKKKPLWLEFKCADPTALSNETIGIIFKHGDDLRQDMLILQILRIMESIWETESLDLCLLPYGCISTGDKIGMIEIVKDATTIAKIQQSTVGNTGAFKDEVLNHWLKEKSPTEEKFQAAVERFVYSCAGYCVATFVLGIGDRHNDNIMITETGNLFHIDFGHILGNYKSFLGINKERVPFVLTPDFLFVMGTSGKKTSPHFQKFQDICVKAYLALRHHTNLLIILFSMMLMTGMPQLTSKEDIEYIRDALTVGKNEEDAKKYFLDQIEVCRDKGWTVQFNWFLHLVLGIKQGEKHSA

In the case of `Cc1nc(NC(=O)CCCN[C@@H](CC(C)C)C(=O)OC2CCCC2)sc1-c1ccc(Cl)c(S(C)(=O)=O)c1` [Example 6, Cyclopentyl N-[4-({5-[4-chloro-3-(methylsulfonyl)phenyl]-4-methyl-1,3-thiazol-2-yl}amino)-4-oxobutyl]-L-leucinate], the IC50 on PI3Kγ (human) was 100 to 1000 nM; with THP-1 cells it was 100 to 1000 nM; in the test on human whole blood, more than 1000 nM.

As for `Cc1nc(NC(=O)CCCN[C@@H](C)C(=O)OC2CCCC2)sc1-c1ccc(Cl)c(S(C)(=O)=O)c1` [Example 7, Cyclopentyl N-[4-({5-[4-chloro-3-(methylsulfonyl)phenyl]-4-methyl-1,3-thiazol-2-yl}amino)-4-oxobutyl]-L-alaninate], the IC50 on PI3Kγ (human) was more than 1000 nM; in the test on THP-1 cells, 100 to 1000 nM; in the test on human whole blood it was 100 to 1000 nM.

Take `Cc1nc(NC(=O)CCN[C@@H](C)C(=O)OC2CCCC2)sc1-c1ccc(Cl)c(S(C)(=O)=O)c1` [Example 16, Cyclopentyl N-[3-({5-[4-chloro-3-(methylsulfonyl)phenyl]-4-methyl-1,3-thiazol-2-yl}amino)-3-oxopropyl]-L-alaninate]: the IC50 is more than 1000 nM at PI3Kγ (human) and 100 to 1000 nM with THP-1 cells.

Take `Cc1nc(NCCCN[C@@H](CC(C)C)C(=O)OC2CCCC2)sc1-c1ccc(Cl)c(S(C)(=O)=O)c1` [Example 17, Cyclopentyl N-[3-({5-[4-chloro-3-(methylsulfonyl)phenyl]-4-methyl-1,3-thiazol-2-yl}amino)propyl]-L-leucinate]: the IC50 on PI3Kγ (human) and in the test on THP-1 cells was more than 1000 nM throughout.

In the case of `Cc1nc(NCC2CCC(N[C@@H](CC(C)C)C(=O)OC3CCCC3)CC2)sc1-c1ccc(Cl)c(S(C)(=O)=O)c1` (stereo partly drawn) [Example 18, Cyclopentyl N-{4-[({5-[4-chloro-3-(methylsulfonyl)phenyl]-4-methyl-1,3-thiazol-2-yl}amino)methyl]cyclohexyl}-L-leucinate], the IC50 at PI3Kγ (human) and in the test with THP-1 cells was more than 1000 nM throughout.

For `Cc1nc(NCC2CCC(N[C@@H](CC(C)C)C(=O)OC(C)(C)C)CC2)sc1-c1ccc(Cl)c(S(C)(=O)=O)c1` (stereo partly drawn) [Example 19, tert-Butyl N-{4-[({5-[4-chloro-3-(methylsulfonyl)phenyl]-4-methyl-1,3-thiazol-2-yl}amino)methyl]cyclohexyl}-L-leucinate], the IC50 at PI3Kγ (human) and in the test on THP-1 cells was more than 1000 nM each time.

For `CC(=O)Nc1nc(C)c(-c2ccc(Cl)c(S(=O)(=O)N[C@@H](C)C(=O)OC3CCCC3)c2)s1` [Example 20, Cyclopentyl N-{[5-(2-acetamido-4-methyl-1,3-thiazol-5-yl)-2-chlorophenyl]sulfonyl}-L-alaninate], the IC50 was less than 100 nM at PI3Kγ (human) and more than 1000 nM with THP-1 cells.

For `CC(=O)Nc1nc(C)c(-c2ccc(Cl)c(S(=O)(=O)N[C@@H](COC(C)(C)C)C(=O)OC3CCCC3)c2)s1` [Example 21, Cyclopentyl N-{[5-(2-acetamido-4-methyl-3-thiazol-5-yl)-2-chlorophenyl]sulfonyl}-O-tert-butyl-L-serinate], the values for the IC50 at PI3Kγ (human) and with THP-1 cells were 100 to 1000 nM and more than 1000 nM, respectively.

On to `CC(=O)Nc1nc(C)c(-c2ccc(Cl)c(S(=O)(=O)NCCN[C@@H](CC(C)C)C(=O)OC3CCCC3)c2)s1` [Example 22, Cyclopentyl N-[2-({[5-(2-acetamido-4-methyl-1,3-thiazol-5-yl)-2-chlorophenyl]sulfonyl}amino)ethyl]-L-leucinate], for which the IC50 on PI3Kγ (human) and in the test on THP-1 cells was more than 1000 nM in each case.

Regarding `Cc1nc(NC(=O)N[C@@H](CO)C(=O)OC2CCCC2)sc1-c1ccc(Cl)c(S(C)(=O)=O)c1` [Example 23, Cyclopentyl N-({5-[4-chloro-3-(methylsulfonyl)phenyl]-4-methyl-1,3-thiazol-2-yl}carbamoyl)-L-serinate], the IC50 at PI3Kγ (human) and in the test on THP-1 cells was more than 1000 nM in each case.

As to `Cc1nc(NC(=O)CCCN[C@@H](CO)C(=O)OC2CCCC2)sc1-c1ccc(Cl)c(S(C)(=O)=O)c1` [Example 24, Cyclopentyl N-[4-({5-[4-chloro-3-(methylsulfonyl)phenyl]-4-methyl-1,3-thiazol-2-yl}amino)-4-oxobutyl]-L-serinate], the IC50 is more than 1000 nM on PI3Kγ (human), less than 100 nM in the test on THP-1 cells and 100 to 1000 nM in the test on human whole blood.

On to `CC(=O)Nc1nc(C)c(-c2ccc(Cl)c(S(=O)(=O)N[C@@H](CO)C(=O)OC3CCCC3)c2)s1` [Example 25, Cyclopentyl N-{[5-(2-acetamido-4-methyl-1,3-thiazol-5-yl)-2-chlorophenyl]sulfonyl}-L-serinate], for which the figures for the IC50 on PI3Kγ (human) and in the test on THP-1 cells were 100 to 1000 nM and more than 1000 nM, respectively.

As to `Cc1nc(NC(=O)CCCN[C@@H](COP(=O)(O)O)C(=O)OC2CCCC2)sc1-c1ccc(Cl)c(S(C)(=O)=O)c1` [Example 26, Cyclopentyl N-[4-({5-[4-chloro-3-(methylsulfonyl)phenyl]-4-methyl-1,3-thiazol-2-yl}amino)-4-oxobutyl]-O-phosphono-L-serinate], the IC50 at PI3Kγ (human) was less than 100 nM; in the test on THP-1 cells, more than 1000 nM.
